The conditions of data set [1]: cited from earlier work.
For data set [2] the following is noted: in vivo, cited from earlier work.
The subject of another data set is plasma cholesterol. As to the kind of experiment: Plasma cholesterol suppression in rats. The data set is classed as in vivo. The conditions noted are these: 200 mg drug/kg body weight.
Data set [3] in a line: Toxicology of DIO-902 in dogs, oral dosing for 28 days. The conditions noted are these: oral doses up to 20 mg/kg/day for 28 days.
The subject of another data set is hepatic cardiolipin. Put plainly: Measurement of hepatic cardiolipin following 91 days dosing in Beagle dogs. The data set is classed as in vivo. The following applies: male Beagle dogs, vs placebo. The method, then:
Male Beagle dogs were treated with empty gelatin capsules (Placebo) or gelatin capsules containing sufficient 2S,4R enantiomer of ketoconazole to provide a dose of 20 mg/kg body weight. After 91 days of therapy, the amount of cardiolipin present in the livers of the dogs was determined. The amount of cardiolipin with fatty acids of the different indicated classes was determined independently. SFA, saturated fatty acids; MUFA, […] fatty acids; PUFA, poly-unsaturated fatty acid; n3, fatty acids in which the first double bond is at C3; n6, fatty acids in which the first double bond is at C6; n9, fatty acids in which the first double bond is at C9.
Male Beagle dogs were treated with empty gelatin capsules (Placebo) or gelatin capsules containing sufficient 2S,4R enantiomer of ketoconazole to provide a dose of 20 mg/kg body weight. After 91 days of therapy, the amount of cardiolipin present in the livers of the dogs was determined. The amount of cardiolipin with fatty acids of the different indicated classes was determined independently. The different classes are arranged according to the proportion that they are found in the placebo treated animals.
The effect of the 2S,4R enantiomer of ketoconazole enantiomers on cardiolipin levels in Beagle dogs was determined. The dogs were approximately 6-7 months of age at the initiation of the experiment and weighed 8-10 kg. To generate the results shown in FIGS. 1 and 2, eight male beagle dogs were used. Four of these dogs were dosed daily with an empty capsule, and four dogs were dosed with a gelatin capsule containing sufficient 2S,4R enantiomer of ketoconazole for each dog to receive 20 mg/kg body weight of the 2S,4R enantiomer of ketoconazole. The capsules were prepared weekly, placed in a labeled pill bottle and stored at 23° C.±3° C. until dispensed for dosing. […] Lipid content of the livers was determined using a combination of high pressure liquid chromatography (HPLC) and mass spectrometry. […]

The next data set has as its system corticosterone. Put plainly: Serum corticosterone reduction after oral dosing in rats. Type of data set: in vivo. The conditions noted are these: 200 mg drug/kg body weight, within 4 hours of oral dosing.
For a further data set, the system named is testosterone. Put plainly: Testosterone suppression after single dose in rats. Type of data set: in vivo.
The conditions of data set [4]: normal volunteers, 200 mg dose of the racemic mixture, oral; cited from earlier work.
Data set [5] in a line: Oral pharmacokinetics in dogs.
Setting [6] is: patients with Cushing's syndrome.

Each structure is given as a SMILES string. Like-named read-outs stand apart in the source and are kept apart here.

In the case of `CC(=O)N1CCN(c2ccc(OCC3COC(Cn4ccnc4)(c4ccc(Cl)cc4Cl)O3)cc2)CC1` (racemic) [racemic ketoconazole, 1-acetyl-4-[4-[[2-(2,4-dichlorophenyl)-2-[(1H-imidazol-1-yl)-methyl]-1,3-dioxolan-4-yl]methoxy]phenyl]piperazine], in data set [1] (human, in vivo), the cortisol synthesis entry was “inhibits cortisol synthesis” and the plasma cortisol result was “decrease plasma cortisol”. Besides, in data set [1] (humans (Sonino et al. 1991; Gylling et al. 1993)), the “cholesterol levels in humans” value is listed as “lower cholesterol levels”. Besides, in data set [1] (setting [6]), the blood pressure result is on record as “reduces”, the cholesterol entry is “reduces” and the glucose entry was “reduces”. In data set [2], the “1,25 dihydroxy Vitamin D” value is “reduces”, the hepatotoxicity result is recorded as “associated with hepatotoxicity” and the testosterone entry is “reduces”. Also, in data set [2] (listed as racemic mixture), the hepatotoxicity entry is given as “can cause hepatoxicity”.
With `CC(=O)N1CCN(c2ccc(OC[C@@H]3CO[C@@](Cn4ccnc4)(c4ccc(Cl)cc4Cl)O3)cc2)CC1` (relative stereo) [DIO-902, 2S,4R cis-1-acetyl-4-[4-[[2-(2,4-dichlorophenyl)-2-(1H-imidazol-1-ylmethyl)-1,3-dioxolan-4-yl]methoxyl]phenyl]piperazine], the plasma cholesterol entry in the data set with plasma cholesterol is “suppresses plasma cholesterol”. In data set [3], the body weight result is “reduction in body weight”; the cholesterol entry was “trend to a decrease in cholesterol”; the food intake entry is listed as “reduction in food intake”; the “other serum chemistry and hematological parameters” value is on record as “no noted changes”. The “amount of cardiolipin in the livers as a function of the liver wet weight” value with hepatic cardiolipin (20 mg/kg body weight daily in gelatin capsule) is “increased cardiolipin levels”. Moreover, in the data set on hepatic cardiolipin (20 mg/kg), the “hepatic cardiolipin by fatty acid carbon chain length and bond number, FIG. 2” value was “able to increase the levels of cardiolipin that contain fatty acids of a wide variety of carbon chain length with different numbers of carbon bonds”; the “hepatic cardiolipin by fatty acid class (SFA, MUFA, PUFA, n3, n6, n9), FIG. 1” value is “able to increase the levels of cardiolipin that contain both saturated and unsaturated fatty acids”. Further, in the data set on corticosterone, the serum corticosterone level is reported as 25 % of basal. Also, in the data set on testosterone (200 mg drug/kg body weight), the “time for testosterone levels to return to normal” value is no more than 8 h and the “time to testosterone suppression after dosing” value is reported as “within four hours”. In addition, in the data set with testosterone (single dose 200 mg drug/kg body weight), the testosterone level is 10 % of basal. In data set [4], the maximum plasma concentration result was “approximately 3.6 μg/mL” and the “time of maximum plasma concentration” value is 2 h. Moreover, the oral availability result in data set [5] is given as “orally available”.

The record behind these values is patent US20090298848A1, “Methods and Compositions for Treating Barth Syndrome, Cardiomyopathy, Mitochondrial Diseases and Other Conditions” (CORTENDO INVEST AB,, priority 2006, published 2009).
